System: E. coli DH5α/pLBII
Assay: Broth microdilution MIC assay, empty vector control strain
Format: cell-based
Conditions: Escherichia coli, read-out: E. coli DH5α/pLBII Microbiological Activity (MIC)
Summary of the method: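 CLSI broth microdilution in cation-supplemented Mueller-Hinton broth, 2-fold compound dilutions, 5×10^5 CFU/mL inoculum, 16-20 h at 37° C, MIC read visually as lowest concentration without growth. E. coli DH5α carries CTX-M15 on pLBII under Lac promoter, or empty pLBII as control.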

Molecule `CCN1CCN(C(=O)NC(C(=O)N[C@H]2Cc3cccc(C(=O)O)c3OB2O)c2csc(N)n2)C(=O)C1=O` (stereo partly drawn) [Example 12, (3R)-3-(2-(2-aminothiazol-4-yl)-2-(4-ethyl-2,3-dioxopiperazine-1-carboxamido)acetamido)-2-hydroxy-3,4-dihydro-2H-benzo[e][1,2]oxaborinine-8-carboxylic acid] has an MIC of 8 to 16 µg/mL.

— patent US11332485B2, “Penicillin-binding protein inhibitors” (priority 2017, dated 2022)
